These results are taken from ChEMBL document CHEMBL1153593, “Recent developments in the design and synthesis of hybrid molecules based on aminoquinoline ring and their antiplasmodial evaluation” (Eur J Med Chem, 2009).

In brackets after ≈: the same amount, converted by molar mass. Bounds are passed on as bounds.

One series deals with Plasmepsin II (Plasmodium falciparum, UniProt P46925). Description: Inhibition of Plasmodium falciparum plasmepsin-2.
Series [1] concerns Plasmodium falciparum. Nature of the series: Antimalarial activity against chloroquine-sensitive Plasmodium falciparum D10 at 9 uM. The series is classed as functional.
For series [2], the system named is Plasmodium falciparum. Description: Antimalarial activity against chloroquine-resistant Plasmodium falciparum W2 at 9 uM. The series is classed as functional.
Series [3] relates to Plasmodium falciparum. Nature of the series: Antimalarial activity against chloroquine-sensitive Plasmodium falciparum D6. The series is classed as functional, organism-based.
The test system of series [4] is Plasmodium falciparum. Description: Antimalarial activity against chloroquine-resistant Plasmodium falciparum TM91C235. The series is classed as functional, organism-based.
For series [5], the system named is Plasmodium falciparum. Nature of the series: Antimalarial activity against Plasmodium falciparum FcB1/Columbia erythrocytes […]. The class given is functional, organism-based.
Series [6] is described as follows: Selectivity index, ratio of CD50 for human MRC5 cells to IC50 for Plasmodium falciparum FcB1/Columbia erythrocytes. The class given is functional.
Series [7] can be described thus: Cytotoxicity against human MRC5 cells. The series is classed as cell-based. The note with it: read-out: CD50 (the source's name).
Series [8] has as its system Plasmodium falciparum. Nature of the series: Antimalarial activity against chloroquine-resistant Plasmodium falciparum K1. The series is classed as functional, organism-based.
The subject of series [9] is Plasmodium falciparum. Nature of the series: Antimalarial activity against Plasmodium falciparum THAI. The class given is functional, organism-based.
The subject of series [10] is Plasmodium falciparum. Nature of the series: Antimalarial activity against chloroquine-resistant Plasmodium falciparum FcB1. The class given is functional, organism-based.
For series [11], the system named is Plasmodium falciparum. Nature of the series: Antimalarial activity as relative mean survival time against Plasmodium falciparum at 40 mg/kg for 4 days. The series is classed as functional. Conditions: 96 h.
For series [12], the system named is Plasmodium falciparum. Nature of the series: Antimalarial activity against Plasmodium falciparum FcB1R. Conditions: read-out: ED50 (the source's name).
The test system of series [13] is Plasmodium berghei. Description: Gametocytocidal activity as infected mosquitoes against Plasmodium berghei at 10 uM/kg. The series is classed as functional.
Series [14] relates to Plasmodium berghei. Description: Gametocytocidal activity as oocysts per mosquito against Plasmodium berghei. The class given is functional.
The nature of series [15]: (§1) Terminal half life in human. The class given is ADME, organism-based. The note with it: in vivo, read-out: beta t1/2 (converted).
The test system of series [16] is Plasmodium falciparum. Description: Antimalarial activity against Plasmodium falciparum NF54. Conditions: NF-54.
In series [17] the test system is Plasmodium yoelii. Nature of the series: Antimalarial activity as mean survival time against Plasmodium yoelii N67 infected Swiss mice (Mus musculus). The class given is functional, N-67.
Series [18] concerns Plasmodium yoelii. Description: Antimalarial activity as reduced parasitaemia at day 4 against Plasmodium yoelii N67 infected Swiss mice (Mus musculus) compared to chloroquine. The series is classed as functional, N-67. Also on record: scale not given: the % may be the effect or the level left.
The species entered for the next series is Homo sapiens. Described as §1. The series is classed as ADME, organism-based. The note with it: in vivo.
For series [19], the system named is Plasmodium falciparum. Nature of the series: Antimalarial activity against chloroquine-resistant Plasmodium falciparum W2. The class given is functional, organism-based.
Series [20] deals with Plasmodium falciparum. Nature of the series: Antimalarial activity against Plasmodium falciparum 3D7. The class given is functional, organism-based.
Series [21] relates to Plasmodium falciparum. Nature of the series: Antimalarial activity against chloroquine-resistant Plasmodium falciparum Dd2. The class given is functional, organism-based.

Plasmepsin II, sequence (P46925 whole entry): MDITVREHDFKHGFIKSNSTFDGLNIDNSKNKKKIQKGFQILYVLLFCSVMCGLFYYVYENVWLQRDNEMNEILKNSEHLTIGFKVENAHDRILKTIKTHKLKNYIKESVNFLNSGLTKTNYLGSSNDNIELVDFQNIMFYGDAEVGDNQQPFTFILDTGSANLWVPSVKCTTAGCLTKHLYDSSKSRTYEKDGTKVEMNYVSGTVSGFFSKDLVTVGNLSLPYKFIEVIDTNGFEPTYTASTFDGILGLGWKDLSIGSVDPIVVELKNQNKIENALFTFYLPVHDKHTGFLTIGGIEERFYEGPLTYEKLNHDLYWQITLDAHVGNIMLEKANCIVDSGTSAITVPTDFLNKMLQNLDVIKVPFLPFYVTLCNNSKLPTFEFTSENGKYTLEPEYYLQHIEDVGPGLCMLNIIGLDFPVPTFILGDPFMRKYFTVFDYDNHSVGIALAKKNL

What is called IC50 is the midpoint of a concentration-inhibition curve. The compound `CCCCNC(=O)C[C@H](O)[C@H](CC(C)C)NC(=O)[C@@H](NC(=O)CCC(=O)N[C@H](C(=O)N[C@H](CCCCN)C(=O)NCCCC(C)Nc1cc(OC)cc2cccnc12)C(C)C)[C@H](C)CC` (some centres undefined) came in with a 50% inhibitory concentration (IC50) on Plasmepsin II of 396000 nM. The Activity was 20% in the series on Plasmodium falciparum [1] and 40% with Plasmodium falciparum [2].

Turning to `CC(C)(C)NCc1c(Nc2ccnc3ccc(Cl)cc23)cc(O)cc1-c1ccc(Cl)cc1`, the IC50 in the series with Plasmodium falciparum [3] and in the series with Plasmodium falciparum [4] was 0.3 ng/mL (≈ 0.643 nM) throughout.

`CCCCCCCNCCCN1CCN(CCCNc2ccnc3cc(Cl)ccc23)CC1` had an IC50 in the series with Plasmodium falciparum [5] of 9.5 nM. Moreover, in [6], the “Selectivity Index” value is given as less than 326. Besides, the CC50 in series [7] is less than 3100 nM.

For `O=C(CN1CCCCC1)Nc1cc(CN2CCOCC2)cc(Nc2ccnc3ccc(Cl)cc23)c1`, the figures for the IC50 in the series with Plasmodium falciparum [8], with Plasmodium falciparum [9] and with Plasmodium falciparum [10] were 12.4 nM, 12.8 nM and 9.6 nM, respectively.

As for `O=C(CN1CCCCC1)Nc1cc(COC(=O)CCCCCC2=CC(=O)c3ccccc3C2=O)cc(Nc2ccnc3ccc(Cl)cc23)c1`, the survival at 40 mg/kg with Plasmodium falciparum [11] was found to be 178%. In addition, the EC50 in the series with Plasmodium falciparum [12] was found to be 23 nM.

As to `COc1cc(NC(C)CCCN)c2ncccc2c1` (centres undefined) [PRIMAQUINE], the figures for the Activity in the series with Plasmodium berghei [13] and with Plasmodium berghei [14] were 28% and 2.6, respectively. In addition, the half-life in series [15] is 14 days.

`O=C(CN1CCCCC1)Nc1cc(CN2CCN(c3ccccc3)CC2)cc(Nc2ccnc3ccc(Cl)cc23)c1` returned an IC50 in the series with Plasmodium falciparum [10] of 5.5 nM.

As for `COc1ccc(CNCc2cc(NC(=O)CN3CCCCC3)cc(Nc3ccnc4ccc(Cl)cc34)c2)cc1`, in the series on Plasmodium falciparum [10], half-maximal inhibition (IC50) required 4.4 nM.

A word on the MIC: it is the lowest concentration found to suppress growth. For the compound `CCN(CC)CCCC(C)Nc1ccnc2cc(Cl)ccc12` (centres undefined) [CHLOROQUINE], in the series on Plasmodium falciparum [16], the IC50 came out at 106 nM and the MIC came out at 0.39 µM (≈ 0.125 µg/mL). The Survival with Plasmodium yoelii [17] stood at 20 days. This compound came in with an Activity in the series with Plasmodium yoelii [18] of 99.9%. Moreover, in the series listed under Homo sapiens, the “beta t1/2” value is listed as 1 months.

With `O=C(CN1CCCCC1)Nc1cc(CN2CCCCC2)cc(Nc2ccnc3ccc(Cl)cc23)c1`, the figures for the IC50 in the series on Plasmodium falciparum [8], with Plasmodium falciparum [9] and in the series on Plasmodium falciparum [10] were 8.1 nM, 6.7 nM and 10 nM, respectively.

In the case of `Clc1ccc2c(NCCCN(CCc3ccccc3)Cc3ncc[nH]3)ccnc2c1`, the IC50 turned out to be 130 nM in the series on Plasmodium falciparum [19], 50 nM with Plasmodium falciparum [20] and 150 nM in the series with Plasmodium falciparum [21].
